Laboratory results: PubChem BioAssay AID2060613 (Molecular Pharmacology Branch, DTP, NCI, 2025)

Test system: 233499-124-R-J3-PDC complex spheroid viability
Experiment: Anticancer human tumor 233499-124-R-J3-PDC patient-derived colon adenocarcinoma cell line growth inhibition [CLK]
Conditions: for IC50: curve of first compound; for viability, T/C: stronger effect = lower value
Outline: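 Multi-cell-type spheroids combined patient-derived tumor cells with HUVEC endothelial cells and human mesenchymal stem cells. Paired agents were dosed in half-log steps down from about clinical Cmax, or from 10 microM where Cmax was unknown.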

[1] = second compound 0.0316 µM, first compound 0.0316 µM
[2] = second compound 0.0316 µM, first compound 0.1 µM
[3] = second compound 0.0316 µM, first compound 0.316 µM
[4] = second compound 0.0316 µM, first compound 1 µM
[5] = second compound 0.1 µM, first compound 0.0316 µM
[6] = second compound 0.1 µM, first compound 0.1 µM
[7] = second compound 0.1 µM, first compound 0.316 µM
[8] = second compound 0.1 µM, first compound 1 µM
[9] = second compound 0.316 µM, first compound 0.0316 µM
[10] = second compound 0.316 µM, first compound 0.1 µM
[11] = second compound 0.316 µM, first compound 0.316 µM
[12] = second compound 0.316 µM, first compound 1 µM
[13] = second compound 1 µM, first compound 0.0316 µM
[14] = second compound 1 µM, first compound 0.1 µM
[15] = second compound 1 µM, first compound 0.316 µM
[16] = second compound 1 µM, first compound 1 µM
[17] = second compound 3.16 µM, first compound 0.0316 µM
[18] = second compound 3.16 µM, first compound 0.1 µM
[19] = second compound 3.16 µM, first compound 0.316 µM
[20] = second compound 3.16 µM, first compound 1 µM
[21] = second compound 10 µM, first compound 0.0316 µM
[22] = second compound 10 µM, first compound 0.1 µM
[23] = second compound 10 µM, first compound 0.316 µM
[24] = second compound 10 µM, first compound 1 µM
[25] = second compound 0.0316 µM, first compound 0.00316 µM
[26] = second compound 0.0316 µM, first compound 0.01 µM
[27] = second compound 0.1 µM, first compound 0.00316 µM
[28] = second compound 0.1 µM, first compound 0.01 µM
[29] = second compound 0.316 µM, first compound 0.00316 µM
[30] = second compound 0.316 µM, first compound 0.01 µM
[31] = second compound 1 µM, first compound 0.00316 µM
[32] = second compound 1 µM, first compound 0.01 µM
[33] = second compound 3.16 µM, first compound 0.00316 µM
[34] = second compound 3.16 µM, first compound 0.01 µM
[35] = second compound 10 µM, first compound 0.00316 µM
[36] = second compound 10 µM, first compound 0.01 µM
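Further: spheroids exposed to the drug combinations for seven days.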
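Wherever viability, T/C is given: percent viability relative to DMSO vehicle control wells taken as 100%.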

Structure (SMILES): CC(Nc1ccc2c(c1)OCCn1cc(N3C(=O)OCC3C(F)F)nc1-2)C(N)=O (stereo unspecified) + CNC(=O)c1ccc(Nc2nc(OC3CCCC3)c3c(-c4ccc5nc(C)oc5c4)c[nH]c3n2)c(OC)c1
- IC50 (second compound 0.0316 µM): > 10000 nM
- IC50 (second compound 0.1 µM): 3880 nM
- IC50 (second compound 0.316 µM): 2810 nM
- IC50 (second compound 1 µM): 316 nM
- IC50 (second compound 3.16 µM): 624 nM
- IC50 (second compound 10 µM): 1080 nM
- viability, T/C [1]: 85.3%
- viability, T/C [2]: 94.6%
- viability, T/C [3]: 81%
- viability, T/C [4]: 72.7%
- viability, T/C (second compound 0.0316 µM, first compound 3.16 µM): 65.5%
- viability, T/C (second compound 0.0316 µM, first compound 10 µM): 53.6%
- viability, T/C [5]: 68.9%
- viability, T/C [6]: 75.1%
- viability, T/C [7]: 72.2%
- viability, T/C [8]: 64.8%
- viability, T/C (second compound 0.1 µM, first compound 3.16 µM): 52.9%
- viability, T/C (second compound 0.1 µM, first compound 10 µM): 38.6%
- viability, T/C [9]: 66.9%
- viability, T/C [10]: 65.7%
- viability, T/C [11]: 72.2%
- viability, T/C [12]: 58.4%
- viability, T/C (second compound 0.316 µM, first compound 3.16 µM): 49.6%
- viability, T/C (second compound 0.316 µM, first compound 10 µM): 32.5%
- viability, T/C [13]: 74.8%
- viability, T/C [14]: 74.9%
- viability, T/C [15]: 50%
- viability, T/C [16]: 42.7%
- viability, T/C (second compound 1 µM, first compound 3.16 µM): 45.9%
- viability, T/C (second compound 1 µM, first compound 10 µM): 42.4%
- viability, T/C [17]: 61.3%
- viability, T/C [18]: 63.6%
- viability, T/C [19]: 56.4%
- viability, T/C [20]: 41.1%
- viability, T/C (second compound 3.16 µM, first compound 3.16 µM): 42.3%
- viability, T/C (second compound 3.16 µM, first compound 10 µM): 37%
- viability, T/C [21]: 60.8%
- viability, T/C [22]: 55.9%
- viability, T/C [23]: 68.1%
- viability, T/C [24]: 44.8%
- viability, T/C (second compound 10 µM, first compound 3.16 µM): 39%
- viability, T/C (second compound 10 µM, first compound 10 µM): 22.2%

Structure (SMILES): CCN1CCN(Cc2ccc(Nc3ncc(F)c(-c4cc(F)c5nc(C)n(C(C)C)c5c4)n3)nc2)CC1 + CNC(=O)c1ccc(Nc2nc(OC3CCCC3)c3c(-c4ccc5nc(C)oc5c4)c[nH]c3n2)c(OC)c1
- IC50 (second compound 0.0316 µM): > 1000 nM
- IC50 (second compound 0.1 µM): > 1000 nM
- IC50 (second compound 0.316 µM): > 1000 nM
- IC50 (second compound 1 µM): 971 nM
- IC50 (second compound 3.16 µM): > 1000 nM
- IC50 (second compound 10 µM): > 1000 nM
- viability, T/C [25]: 88.3%
- viability, T/C [26]: 98.3%
- viability, T/C [1]: 90%
- viability, T/C [2]: 106%
- viability, T/C [3]: 102%
- viability, T/C [4]: 70.1%
- viability, T/C [27]: 71.7%
- viability, T/C [28]: 91.6%
- viability, T/C [5]: 84.8%
- viability, T/C [6]: 83.8%
- viability, T/C [7]: 89.3%
- viability, T/C [8]: 64%
- viability, T/C [29]: 68.8%
- viability, T/C [30]: 84.3%
- viability, T/C [9]: 78%
- viability, T/C [10]: 94.2%
- viability, T/C [11]: 62.7%
- viability, T/C [12]: 53.1%
- viability, T/C [31]: 77.2%
- viability, T/C [32]: 85.9%
- viability, T/C [13]: 74.3%
- viability, T/C [14]: 85.3%
- viability, T/C [15]: 84.5%
- viability, T/C [16]: 49.2%
- viability, T/C [33]: 81.1%
- viability, T/C [34]: 75.2%
- viability, T/C [17]: 78.1%
- viability, T/C [18]: 78.7%
- viability, T/C [19]: 97.2%
- viability, T/C [20]: 57.6%
- viability, T/C [35]: 76.4%
- viability, T/C [36]: 80.9%
- viability, T/C [21]: 66.8%
- viability, T/C [22]: 74.5%
- viability, T/C [23]: 60.1%
- viability, T/C [24]: 51.1%

Structure (SMILES): COc1c(OCCCN2CCOCC2)ccc2c3n(c(=NC(=O)c4cnc(N)nc4)nc12)CCN3 + CNC(=O)c1ccc(Nc2nc(OC3CCCC3)c3c(-c4ccc5nc(C)oc5c4)c[nH]c3n2)c(OC)c1
- IC50 (second compound 0.0316 µM): 172 nM
- IC50 (second compound 0.1 µM): 111 nM
- IC50 (second compound 0.316 µM): 88.5 nM
- IC50 (second compound 1 µM): 25.9 nM
- IC50 (second compound 3.16 µM): 41.7 nM
- IC50 (second compound 10 µM): 27.2 nM
- viability, T/C [25]: 90%
- viability, T/C [26]: 91%
- viability, T/C [1]: 81.6%
- viability, T/C [2]: 65.3%
- viability, T/C [3]: 33.2%
- viability, T/C [4]: 5.74%
- viability, T/C [27]: 70.5%
- viability, T/C [28]: 85.4%
- viability, T/C [5]: 73.2%
- viability, T/C [6]: 53.4%
- viability, T/C [7]: 16.1%
- viability, T/C [8]: 3.37%
- viability, T/C [29]: 75.3%
- viability, T/C [30]: 81.8%
- viability, T/C [9]: 68.8%
- viability, T/C [10]: 45.7%
- viability, T/C [11]: 22.6%
- viability, T/C [12]: 3.62%
- viability, T/C [31]: 73.5%
- viability, T/C [32]: 59.4%
- viability, T/C [13]: 49%
- viability, T/C [14]: 31.6%
- viability, T/C [15]: 23%
- viability, T/C [16]: 3.52%
- viability, T/C [33]: 62.9%
- viability, T/C [34]: 68.1%
- viability, T/C [17]: 50%
- viability, T/C [18]: 38.8%
- viability, T/C [19]: 15.3%
- viability, T/C [20]: 2.16%
- viability, T/C [35]: 75.1%
- viability, T/C [36]: 65.9%
- viability, T/C [21]: 45.5%
- viability, T/C [22]: 31%
- viability, T/C [23]: 10.5%
- viability, T/C [24]: 2.07%
